Experimental data reported in article PMC6021111, “Murine leukemia virus p12 tethers the capsid-containing pre-integration complex to chromatin by binding directly to host nucleosomes in mitosis” (PLoS Pathogens, 2018).

Columns and labels:
[1] = test system: H2B precipitation with GST-p12_M63I, 293T cells; test: Kinase inhibition, H2B pull-down with GST-p12_M63I; type: cell-based; conditions: 3.5 h with nocodazole and 10 μM MG132; roscovitine 75 μM, kenpaullone 40 μM; immunoblot
Protocol: (§1) Glycogen synthase kinase 3 (GSK3) and cyclin-dependent kinase 5 (CDK5) were predicted to phosphorylate Mo-MLV p12 on S61, by the NetPhos 3.1 kinase prediction algorithm. […] These drugs were tested in our biochemical assays for their ability to reduce GST-p12_M63I phosphorylation and chromatin association. In our assays, cells transiently-expressing GST-p12_M63I were cultured in media containing nocodazole overnight, prior to the addition of the kinase inhibitors. […] After removal of the drugs, cells were immediately washed and lysed for glutathione-sepharose bead pull-down assays. The eluates from the beads were analysed by SDS-PAGE followed by sequential staining with PQ and SR dyes to quantify the phosphorylation levels of GST-p12_M63I. LiCl treatment had little effect on GST-p12_M63I phosphorylation (Fig 7A, lane 2). […] To correlate GST-p12_M63I phosphorylation with its ability to interact with chromatin, we quantified the amounts of H2B in the pull-down eluates by immunoblotting. […] The short period of kinase inhibition used in our assays, may have limited the effects observed on GST-p12_M63I phosphorylation.
(§2) GST-p12 proteins were expressed in 293T cells from pCAGGS/GST-derived plasmids by transient transfection using Turbofect (Thermo Fisher Scientific). Approximately 24 h after transfection, cells were changed into fresh media containing either 400 ng/ml nocodazole (Sigma) or 2 μg/ml aphidicolin (Sigma) and incubated overnight at 37°C. The synchronisation of the cell cultures after drug treatment was assessed by propidium iodide staining and cell cycle phase analysis by flow cytometry. Cells to be used in pull down assays were washed and lysed in 20 mM Tris pH 8.0, 300 mM NaCl, 1 mM EDTA, 10% Glycerol, 1% Triton X-100, protease inhibitors (Roche), phosphatase inhibitors (Merck). Lysis was facilitated by passing the lysates through a 19-gauge needle x7 and sonication, x7 pulses, 30 s ON and 30 s OFF, in an ice bath (Decon FS100). […] ProQ diamond and Sypro ruby staining (Thermo Fisher Scientific) of gels was visualised and quantified on a ChemiDoc imaging system (Bio-Rad). […]

[2] = test system: GST-p12_M63I phosphorylation in 293T cells; test: Kinase inhibition, GST-p12_M63I phosphorylation (PQ/SR); type: cell-based; conditions: 3.5 h with nocodazole and 10 μM MG132, LiCl 40 mM, roscovitine 75 μM, kenpaullone 40 μM
Protocol: as §1, §2

[3] = test system: cyclin-dependent kinase 5 (CDK5); design: method as in PMID 12534346; conditions: cited from earlier work
[4] = test system: Glycogen synthase kinase 3 (GSK3); conditions: cited from earlier work
[5] = target: T1, recombinant H3.3 poly-nucleosomes (Homo sapiens, UniProt P62807+P84243+Q93077); test: Biolayer interferometry, peptide binding to poly-nucleosomes; conditions: BLI; biotinylated peptide on streptavidin sensor; HEPES pH 7.5, 150 mM NaCl, 25°C
T1 construct: purchased Active Motif
From the text: To identify whether p12 proteins also interact directly with nucleosomes, we used biolayer interferometry (BLI) to probe the binding of recombinant poly-nucleosomal arrays by p12 CTD peptides (Fig 9). Streptavidin sensor probes coated with biotinylated peptide ligands were immersed in ‘analyte’ solutions containing the in vitro assembled nucleosomal arrays to observe any potential interactions. The p12 CTD peptide sequences used are highlighted in bold in Fig 5C. A peptide carrying the PFV hCBS sequence was included in the assays as a positive control.
The binding of PFV hCBS and p12 CTD peptides to recombinant H3.3 poly-nucleosomes (Active Motif) was measured using biolayer interferometry on an Octet RED system (Pall ForteBio Corp). The peptides were synthesised with a N-terminal biotin tag and GGGG linker. The Mo-MLV, FeLV and GaLV p12 CTD peptide sequences used are highlighted in bold in Fig 5C. A negative control was included that contained an R66A change in the Mo-MLV p12_M63I CTD peptide. Mo-MLV phos p12_M63I CTD was also synthesised with a phosphorylated S61 residue. […] Equilibrium binding amplitudes were determined by exponential least squares curve fitting of the association phase. […] Equilibrium binding constant (Kd) and maximum specific binding (Bmax) were calculated by fitting the data to a non-linear regression model. […]

[6] = test system: nucleosome binding to immobilised biotinylated hCBS; test: BLI competition, nucleosome binding to immobilised hCBS; conditions: soluble peptide 100 μM; three technical replicates
Protocol: A negative control was included that contained an R66A change in the Mo-MLV p12_M63I CTD peptide. […] The biotinylated peptides were loaded onto streptavidin biosensors (Pall ForteBio Corp) at 0.5 μg/ml for 120 s in 10 mM HEPES pH 7.5, 150 mM NaCl, 0.005% (v/v) Tween 20. […] Experiments were performed at 25°C and sample plates were agitated at 1000 rpm. […] For competition assays, soluble non-biotin tagged peptides were added to the nucleosomal arrays at 100 μM to inhibit nucleosome binding prior to recording BLI measurements with biotinylated peptide immobilised on sensor probes.

nucleosomes = conditions: cited from earlier work
From the text: To identify whether p12 binds to the same nucleosomal docking site as the CBS from PFV Gag, we then tested the ability of p12 CTD peptides to block the binding of nucleosomal arrays to hCBS and vice versa (Fig 9E and 9F).

O=C1Cc2c([nH]c3ccc(Br)cc23)-c2ccccc2N1 [kenpaullone]
reduction of H2B precipitation by kinase inhibitor [1]: ~ 3.5 fold
reduction of GST-p12_M63I phosphorylation by kinase inhibitor [2]: ~ 3 fold
inhibition of CDK5 [3]: inhibits both enzymes
inhibition of GSK3 [4]: inhibits both enzymes

CC[C@H](C)[C@H](NC(=O)[C@@H]1CCCN1C(=O)[C@H](CO)NC(=O)[C@@H]1CCCN1C(=O)[C@H](CC(=O)O)NC(=O)CNC(=O)CNC(=O)CNC(=O)CNC(=O)CCCC[C@@H]1SC[C@@H]2NC(=O)N[C@@H]21)C(=O)N[C@@H](C)C(=O)N[C@@H](CO)C(=O)N[C@@H](CCCNC(=N)N)C(=O)N[C@@H](CC(C)C)C(=O)N[C@@H](CCCNC(=N)N)C(=O)NCC(=O)N[C@@H](CCCNC(=N)N)C(=O)N[C@@H](CCCNC(=N)N)C(=O)N[C@@H](CCC(=O)O)C(=O)N1CCC[C@H]1C(=O)N1CCC[C@H]1C(=O)N[C@H](C(=O)O)C(C)C [non-phosphorylated p12_M63I]
binding to nucleosomal arrays [5]: clear binding to nucleosomes

CC[C@H](C)[C@H](NC(=O)[C@@H]1CCCN1C(=O)[C@H](COP(=O)(O)O)NC(=O)[C@@H]1CCCN1C(=O)[C@H](CC(=O)O)NC(=O)CNC(=O)CNC(=O)CNC(=O)CNC(=O)CCCC[C@@H]1SC[C@@H]2NC(=O)N[C@@H]21)C(=O)N[C@@H](C)C(=O)N[C@@H](CO)C(=O)N[C@@H](CCCNC(=N)N)C(=O)N[C@@H](CC(C)C)C(=O)N[C@@H](CCCNC(=N)N)C(=O)NCC(=O)N[C@@H](CCCNC(=N)N)C(=O)N[C@@H](CCCNC(=N)N)C(=O)N[C@@H](CCC(=O)O)C(=O)N1CCC[C@H]1C(=O)N1CCC[C@H]1C(=O)N[C@H](C(=O)O)C(C)C [phosphorylated p12_M63I]
binding to nucleosomal arrays [5]: clear binding to nucleosomes

DPSPMASALRGRREPPY [p12_R66A, soluble Mo-MLV p12 CTD peptide with R66A]
decrease of equilibrium binding of nucleosomes to immobilised hCBS [6]: not hCBS_L539A/R540A or p12_R66A peptides

NQGGYNAAPRTYQP [hCBS_L539A/R540A, hCBS peptide with L539A/R540A mutations, reference compound]
decrease of equilibrium binding of nucleosomes to immobilised hCBS [6]: not hCBS_L539A/R540A or p12_R66A peptides
binding of hCBS peptides to nucleosomes (nucleosomes): prevent binding of hCBS peptides to nucleosomes
